According to patent publication US10925852B2, “Talc-bound compositions and uses thereof” (THE TRUSTEES OF COLUMBIA UNIVERSITY IN THE CITY OF NEW YORK, priority 2015, dated 2021):
Where a name gives a salt, the structure may show the parent alone. Read-outs that look alike come from different tables or passages of the source.

Experiments:
NCI-28H cells [1] = test: Cytotoxicity assay (MTS) of NCI-28H cells: doxorubicin, cisplatin, paclitaxel, talc, talc bound to these drugs (Example 21); format: cell-based; settings: 72 hrs
Protocol: Compare survival rate between each formulation.
1. Set up 3 cytotoxicity plates for Day 2 experiment: trypsinize NCI-28H cells (T-75 flask, passage 12): • Remove old medium, wash cells with 7 ml DPBS, remove DPBS, add 2 ml trypsin, incubate plates for 1-2′, when cells detached add 6 ml fresh medium, mix cells and medium. • Count cells under the microscope using the glass slide. […] If we need 200 wells, in each well will be 5,000 cells in 0.1 ml; so total we need 1,000,000 cells in 20 ml. […] In 50 ml Falcon tube, combine 16.6 ml fresh medium and 3.4 ml cells. Gently mix.
3. […] Final solution is 500 μL of 20 μM.
1. […] Take out supernatant.
6. Check the plate and start incubation at 37° C./5% CO2
3. Wash cells 1×300 μL media, remove final wash.

NCI-28H cells [2] = settings: 72 hrs
NCI-28H cells [3] = tested on: NCI-28H cells

COc1cccc2c1C(=O)c1c(O)c3c(c(O)c1C2=O)C[C@@](O)(C(=O)CO)C[C@@H]3O[C@H]1C[C@H](N)[C@H](O)[C@H](C)O1 [DOX, Doxorubicin Hydrochloride]
AVERAGE: cells + DOX (absorbance 490 nm) (NCI-28H cells [1]; DOX 0.2 μM): 0.89 | AVERAGE: cells + DOX (absorbance 490 nm) (NCI-28H cells [1]; DOX 1 μM): 0.67 | AVERAGE: cells + DOX (absorbance 490 nm) (NCI-28H cells [1]; DOX 5 μM): 0.63

Cc1c(N)nc([C@H](CC(N)=O)NCC(N)C(N)=O)nc1C(=O)N[C@H](C(=O)N[C@H](C)[C@@H](O)[C@H](C)C(=O)N[C@H](C(=O)NCCc1nc(-c2nc(C(=O)NCCC[S+](C)C)cs2)cs1)[C@@H](C)O)C(O[C@@H]1OC(CO)[C@@H](O)C(O)C1O[C@H]1OC(CO)[C@@H](O)C(OC(N)=O)C1O)c1c[nH]cn1 (some centres unmarked) [bleomycin, Bleomycin sulfate]
% survival NCI-28H cells after treatment with BLEOMYCIN (NCI-28H cells [2]; Bleomycin 0.004 ug/ml): 92.41% | % survival NCI-28H cells after treatment with BLEOMYCIN (NCI-28H cells [2]; Bleomycin 0.015 ug/ml): 88.25% | % survival NCI-28H cells after treatment with BLEOMYCIN (NCI-28H cells [2]; Bleomycin 0.06 ug/ml): 93.38% | % survival NCI-28H cells after treatment with BLEOMYCIN (NCI-28H cells [2]; Bleomycin 0.24 ug/ml): 91.86% | % survival NCI-28H cells after treatment with BLEOMYCIN (NCI-28H cells [2]; Bleomycin 0.97 ug/ml): 86.19% | % survival NCI-28H cells after treatment with BLEOMYCIN (NCI-28H cells [2]; Bleomycin 3.9 ug/ml): 71.05% | % survival NCI-28H cells after treatment with BLEOMYCIN (NCI-28H cells [2]; Bleomycin 15.6 ug/ml): 74.60% | % survival NCI-28H cells after treatment with BLEOMYCIN (NCI-28H cells [2]; Bleomycin 62.5 ug/ml): 68.76% | % survival NCI-28H cells after treatment with BLEOMYCIN (NCI-28H cells [2]; Bleomycin 250 ug/ml): 47.13% | % survival NCI-28H cells after treatment with BLEOMYCIN (NCI-28H cells [2]; Bleomycin 1000 ug/ml): 24.92%

N.N.[Cl][Pt][Cl] [cisplatin, Cisplatin]
Average reading: cells + cisplatin (absorbance 490 nm) (NCI-28H cells [1]; Cisplatin 0.0013 μM): 1.37 | Average reading: cells + cisplatin (absorbance 490 nm) (NCI-28H cells [1]; Cisplatin 0.0064 μM): 1.19 | Average reading: cells + cisplatin (absorbance 490 nm) (NCI-28H cells [1]; Cisplatin 0.8 μM): 1.23 | Average reading: cells + cisplatin (absorbance 490 nm) (NCI-28H cells [1]; Cisplatin 4 μM): 1.18 | Average reading: cells + cisplatin (absorbance 490 nm) (NCI-28H cells [1]; Cisplatin 20 μM): 0.48 | Average reading: cells + cisplatin (absorbance 490 nm) (NCI-28H cells [1]; Cisplatin 100 μM): 0.59

Nc1ccn([C@@H]2O[C@H](CO)[C@@H](O)C2(F)F)c(=O)n1 [gemcitabine, Gemcitabine]
cytotoxic effect on NCI-28H cells (in words) (NCI-28H cells [3]): clear cytotoxic effect
